Consider 21 compounds from paper PMC2848589, “Raltegravir Is a Potent Inhibitor of XMRV, a Virus Implicated in Prostate Cancer and Chronic Fatigue Syndrome” (PLoS ONE, 2010).

pEC50: −log10 of the molar value. Read-outs that look alike come from different tables or passages of the source.

A word on the pEC50: it is the EC50 on a negative log10 scale, so that one unit is a factor of ten. The term EC90 denotes the concentration needed for an effect of 90%. What is called CC50 is the concentration at which the toxic effect on the cells reaches its halfway point.

Series [1] deals with HIV-1LAI. Nature of the series: HIV-1 replication in PHA-stimulated peripheral blood mononuclear cells. Format: cell-based. To be noted: Human immunodeficiency virus 1, PBMC; for pEC50: read-out: HIV-1 in PBM cells EC50; for EC90: read-out: HIV-1 in PBM cells EC90. The method, then:
(§1) We tested a total of 45 compounds belonging to different classes of HIV-1 inhibitors, and a few inhibitors of viruses other than retroviruses, for their ability to inhibit XMRV replication in cultured cells. LNCaP and MCF-7 cells were chosen for their ability to support robust in vitro replication of XMRV. […] To determine if a reduction in viral release might be due to toxicity of the compound and not due to specific antiretroviral activity, cellular morphology was monitored every 24 h by microscopic examination, and an MTT [3-(4,5-dimethylthiazol-2-yl)-2,5-diphenyltetrazolium bromide] colorimetric assay was used to measure potential cytotoxicity produced by the compounds. Supernatants were collected every 24 h and assayed for viral release by measuring RT activity. […] For comparison purposes, all compounds evaluated in these studies were also tested against HIV-1LAI in primary human lymphocytes.
(§2) Each well was carefully monitored for signs of cellular toxicity due to the inhibitors by microscopic observation every 24 h. In addition, cell viability was measured using the CellTiter 96 AQueous One Solution cell proliferation assay according to the manufacturer (Promega, Madison, Wis). Viral release from the cells was assayed by measuring RT activity in the supernatant. For this, supernatant from each well was collected every 24 h and frozen at −20°C until it was analyzed by RT assay for viral release as described previously. In brief, oligo(dT)·poly(rA) primer-template assays were performed in the presence of radiolabeled [α-^32P]dTTP and Mn^2+. After incubating the viral supernatants with the RT reaction mix for 1 h at 37°C, samples were spotted onto DE81 DEAE cellulose paper (Whatman) and unincorporated label washed away with 2× SSC (1× SSC = 0.15 M NaCl and 0.015 M sodium citrate). […] Inhibition of viral release as measured on day 6 after inoculation was averaged over 3–5 experiments and plotted. The antiviral EC50 and cytotoxic concentrations (CC50,) was determined from the concentration–response curve using the median effect method. HIV-1 replication assays were performed as described previously using peripheral blood mononuclear cells (PBMC) obtained from the American Red Cross, Atlanta, GA, that were stimulated with phytohemagglutinin (PHA) for 72 hr.

The subject of series [2] is XMRV. Kind of series: XMRV replication in MCF-7 cells (viral release by RT activity in supernatant). To be noted: for pEC50 / EC90: MCF7, 144 h; for pEC50: read-out: XMRV in MCF-7 cells EC50; for EC90: read-out: XMRV in MCF-7 cells EC90; for activity against XMRV (in words): tested up to 100 µM, Figure 1. Type of series: cell-based.
Series [3] can be described thus: Cytotoxicity in PBM cells. Type of series: cell-based. To be noted: human, read-out: HIV-1 in PBM cells CC50. The method, then:
as §2

A short description of series [4]: Cytotoxicity in MCF-7 cells (MTT / CellTiter 96 AQueous One). Format: cell-based, human. To be noted: human. The method, then:
as §1, §2

[5] abbreviates: MCF-7 cells, read-out: XMRV in MCF-7 cells CC50.
Setting [6] is: peripheral blood mononuclear (PBM) cells.
Setting [7] is: XMRV-infected MCF-7 cells, RT activity in supernatant, day 6.

As for `C[C@]12CC[C@H](O)CC1=CC[C@@H]1[C@@H]2CC[C@]2(C)C(=O)CC[C@@H]12` [Dehydroepiandrosterone (DHEA), Dehydroepiandrosterone], the results for the negative-log EC50 (pEC50) in series [1] and in series [2] were 4.82 and 4.16, respectively. Moreover, the EC90 is 71.2 µM in series [1] and more than 100 µM in series [2]. Further, the values for the CC50 in series [3] and in series [4] (setting [5]) were more than 100 µM and 64.1 µM, respectively.
In the case of `O=C1Nc2ccc(Cl)cc2[C@@](C#CC2CC2)(C(F)(F)F)O1` [Efavirenz], the figures for the negative-log EC50 (pEC50) in series [1] and in series [2] were 9.14 and 4.29, respectively. The EC90 in series [1] came to 0.0027 µM; in series [2], 93 µM. Besides, the “activity against XMRV (in words)” value in series [2] was “did not demonstrate any major activity”. In addition, the CC50 in series [3] (setting [6]) was 18.4 µM; in series [4] (setting [5]), 60.4 µM.
Consider `Nc1nc(=O)n([C@@H]2CS[C@H](CO)O2)cc1F` [Emtricitabine [(-)-FTC], Emtricitabine], for which, in series [1], the negative-log EC50 (pEC50) was 8.18 and the EC90 is 0.052 µM. Besides, in series [2], the pEC50 was less than 4.00, the EC90 is more than 100 µM and the “activity against XMRV (in words)” value was “essentially inactive”. Moreover, the CC50 in series [3] (setting [6]) is more than 100 µM. This compound displayed a CC50 in series [4] of more than 100 µM.
Regarding `C=C1[C@H](CO)[C@@H](O)C[C@@H]1n1cnc2c(=O)[nH]c(N)nc21` [Entecavir (ETV), Entecavir], the pEC50 in series [1] was 5.68; in series [2], less than 4.00. For the same compound, the concentration for an effect of 90% (EC90) is 16.3 µM in series [1] and more than 100 µM in series [2]. In addition, the CC50 is 25.2 µM in series [3] (setting [6]) and 93.3 µM in series [4].
As for `O=C(O)P(=O)(O)O` [Foscarnet (PFA), Foscarnet], the pEC50 was 4.57 in series [1] and 4.38 in series [2]. For the same compound, the results for the concentration for an effect of 90% (EC90) in series [1] and in series [2] were 71.9 µM and more than 100 µM, respectively. Besides, the CC50 in series [3] (setting [6]) and in series [4] (setting [5]) was more than 100 µM each time.
`Nc1nc(O)c2ncn(COC(CO)CO)c2n1` [Ganciclovir (GCV), Ganciclovir]: the negative logarithm of the EC50 (pEC50) in series [1] and in series [2] was less than 4.00 each time. In addition, the concentration for an effect of 90% (EC90) in series [1] and in series [2] was more than 100 µM each time. In addition, the cytotoxic concentration (CC50) in series [3] (setting [6]) and in series [4] was more than 100 µM throughout.
As for `CC(C)(C)NC(=O)[C@@H]1CN(Cc2cccnc2)CCN1C[C@@H](O)C[C@@H](Cc1ccccc1)C(=O)N[C@H]1c2ccccc2C[C@H]1O` [Indinavir], the pEC50 is 7.74 in series [1] and less than 4.00 in series [2]. Besides, the 90% effect concentration (EC90) was 0.064 µM in series [1] and more than 100 µM in series [2]. Further, in series [2], the “activity against XMRV (in words)” value is listed as “essentially ineffective”. Besides, the CC50 in series [3] (setting [6]) is more than 100 µM; in series [4] it was 69.9 µM.
Take `Nc1ccn([C@@H]2CS[C@H](CO)O2)c(=O)n1` [Lamivudine (3TC), Lamivudine]: in series [1], the pEC50 is 7.07 and the EC90 is 0.36 µM. Also, in series [2], the pEC50 is less than 4.00, the EC90 was more than 100 µM and the “activity against XMRV (in words)” value is “essentially inactive”. The 50% cytotoxic concentration (CC50) in series [3] (setting [6]) was found to be 41.9 µM. In addition, in series [4], the CC50 is more than 100 µM.
As for `Cc1cccc(C)c1OCC(=O)N[C@@H](Cc1ccccc1)[C@@H](O)C[C@H](Cc1ccccc1)NC(=O)[C@H](C(C)C)N1CCCNC1=O` [Lopinavir], the pEC50 in series [1] is 7.96; in series [2] (setting [7]), 4.14. The EC90 was 0.029 µM in series [1] and more than 100 µM in series [2]. Moreover, the CC50 is 36 µM in series [3] (setting [6]) and 8.5 µM in series [4].
In the case of `CN(C)c1ccc2nc3ccc(=[N+](C)C)cc-3sc2c1` [Methylene blue], the pEC50 in series [1] is 7.62; in series [2] it was 6.38. For the same compound, the results for the 90% effect concentration (EC90) in series [1] and in series [2] were 0.5 µM and 2.7 µM, respectively. Besides, the CC50 in series [3] (setting [6]) turned out to be 6.1 µM; in series [4] it was 7.2 µM.
Turning to `Cc1c(O)cccc1C(=O)N[C@@H](CSc1ccccc1)[C@H](O)CN1C[C@H]2CCCC[C@H]2C[C@H]1C(=O)NC(C)(C)C` [Nelfinavir], the pEC50 in series [1] was 7.74; in series [2] (setting [7]), 4.46. In addition, the values for the EC90 in series [1] and in series [2] were 0.067 µM and more than 100 µM, respectively. Moreover, the CC50 in series [3] (setting [6]) was 73.8 µM; in series [4] it was 7.4 µM.
Regarding `Nc1nc2c(ncn2CCC(CO)CO)c(=O)[nH]1` [Penciclovir (PCV), Penciclovir], the pEC50 in series [1] and in series [2] was less than 4.00 in each case. Moreover, the EC90 in series [1] and in series [2] was more than 100 µM in each case. Besides, the CC50 in series [3] (setting [6]) is more than 100 µM; in series [4], 98.1 µM.
Consider `NC(=O)c1ncn([C@@H]2O[C@H](CO)[C@@H](O)[C@H]2O)n1` [Ribavirin (RBV), Ribavirin], for which the pEC50 is 5.19 in series [1] and 4.28 in series [2]. The EC90 in series [1] and in series [2] was more than 100 µM in each case. In addition, the CC50 was more than 100 µM in series [3] (setting [6]) and 74.1 µM in series [4].
Turning to `CC(C)(C)NC(=O)[C@@H]1C[C@@H]2CCCC[C@@H]2CN1C[C@@H](O)[C@H](Cc1ccccc1)NC(=O)[C@H](CC(N)=O)NC(=O)c1ccc2ccccc2n1` [Saquinavir], the results for the pEC50 in series [1] and in series [2] were 8.19 and less than 4.00, respectively. The values for the EC90 in series [1] and in series [2] were 0.021 µM and more than 100 µM, respectively. The “activity against XMRV (in words)” value in series [2] is given as “essentially ineffective”. For the same compound, the CC50 in series [3] (setting [6]) was determined as 26.7 µM; in series [4], 53.7 µM.
For `Cc1cn([C@@H]2C[C@@H](O)[C@H](CO)O2)c(=O)[nH]c1=O` [Telbivudine (LdT), Telbivudine], the pEC50 in series [1] and in series [2] was less than 4.00 each time. Moreover, the EC90 in series [1] and in series [2] was more than 100 µM throughout. Also, the 50% cytotoxic concentration (CC50) in series [3] (setting [6]) was more than 100 µM; in series [4], 88.3 µM.
Turning to `C[C@H](Cn1cnc2c(N)ncnc21)OCP(=O)(O)O` [Tenofovir (TNV), Tenofovir], the pEC50 in series [1] was 6.06; in series [2], 4.08. Also, the EC90 in series [1] is 6.6 µM; in series [2] it was more than 100 µM. The “activity against XMRV (in words)” value in series [2] is recorded as “ineffective”. Further, the values for the CC50 in series [3] (setting [6]) and in series [4] (setting [5]) were more than 100 µM and 79.6 µM, respectively.
Take `CCC[C@@]1(CCc2ccccc2)CC(O)=C([C@H](CC)c2cccc(NS(=O)(=O)c3ccc(C(F)(F)F)cn3)c2)C(=O)O1` [Tipranavir]: the pEC50 is 7.46 in series [1] and less than 4.00 in series [2]. The results for the 90% effect concentration (EC90) in series [1] and in series [2] were 0.17 µM and more than 100 µM, respectively. In addition, in series [2], the “activity against XMRV (in words)” value was “essentially ineffective”. In addition, the figures for the CC50 in series [3] (setting [6]) and in series [4] (setting [5]) were more than 100 µM and 75.6 µM, respectively.
As for `Nc1ncnc2c1ncn2[C@@H]1O[C@H](CO)[C@@H](O)[C@@H]1O` [Vidarabine (ara-A), Vidarabine], the pEC50 in series [1] was 4.51; in series [2] it was 5.36. Moreover, the EC90 in series [1] and in series [2] was more than 100 µM in each case. For the same compound, the CC50 in series [3] (setting [6]) is more than 100 µM; in series [4], 50.5 µM.
Consider `O=c1[nH]cnc2c1ncn2[C@H]1CC[C@@H](CO)O1` [Videx (DDI), Videx], for which, in series [1], the pEC50 was 6.54 and the EC90 is 2.2 µM. Further, in series [2], the pEC50 was less than 4.00, the EC90 is more than 100 µM and the “activity against XMRV (in words)” value was “essentially inactive”. In addition, the 50% cytotoxic concentration (CC50) in series [3] (setting [6]) is more than 100 µM. In series [4], the CC50 is more than 100 µM.
In the case of `Nc1ccn(C[C@@H](CO)OCP(=O)(O)O)c(=O)n1` [Vistide (HPMPC), Vistide], the figures for the pEC50 in series [1] and in series [2] were less than 4.00 and 4.07, respectively. For the same compound, the 90% effect concentration (EC90) in series [1] and in series [2] was more than 100 µM throughout. The CC50 in series [3] (setting [6]) and in series [4] (setting [5]) was more than 100 µM throughout.
Consider `Nc1ccn([C@H]2CC[C@@H](CO)O2)c(=O)n1` [Zalcitabine (ddC), Zalcitabine], for which the negative-log EC50 (pEC50) was 7.36 in series [1] and less than 4.00 in series [2]. The EC90 was 0.31 µM in series [1] and more than 100 µM in series [2]. Moreover, the CC50 was more than 100 µM in series [3] (setting [6]) and 89.8 µM in series [4].
